Key:
Assay type in all cases: biochemical
[1] = target: T1, human FGF-1 (flg) receptor tyrosine kinase (Homo sapiens, UniProt P11362); test: FGF receptor tyrosine kinase assay; conditions: read-out: Inhibition of Protein Tyrosine Kinases, FGF, IC50
T1 construct: a fragment of DNA that codes for the intracellular tyrosine kinase domain; made in house; host or cells: Sf9 insect cells (baculovirus), cell lysate
Summary of the method: (§1)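 Intracellular kinase domains expressed in baculovirus-infected SF9 cells; crude lysate used as enzyme. Inhibitor preincubated 10 min at 25 °C with lysate in pH 7.0 Hepes buffer with 10 mM MnCl2 and poly(Glu-Tyr) 4:1, then γ-32P-ATP (50 μM ATP) added for 10 min at 25 °C. TCA-precipitated 32P on filters counted, no-enzyme background subtracted.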

[2] = target: T2, C-src kinase (Homo sapiens, UniProt P12931); test: C-src kinase assay; conditions: read-out: Inhibition of Protein Tyrosine Kinases, C-src, IC50
T2 construct: made in house; host or cells: baculovirus-infected insect cells
T2 sequence (P12931 whole entry): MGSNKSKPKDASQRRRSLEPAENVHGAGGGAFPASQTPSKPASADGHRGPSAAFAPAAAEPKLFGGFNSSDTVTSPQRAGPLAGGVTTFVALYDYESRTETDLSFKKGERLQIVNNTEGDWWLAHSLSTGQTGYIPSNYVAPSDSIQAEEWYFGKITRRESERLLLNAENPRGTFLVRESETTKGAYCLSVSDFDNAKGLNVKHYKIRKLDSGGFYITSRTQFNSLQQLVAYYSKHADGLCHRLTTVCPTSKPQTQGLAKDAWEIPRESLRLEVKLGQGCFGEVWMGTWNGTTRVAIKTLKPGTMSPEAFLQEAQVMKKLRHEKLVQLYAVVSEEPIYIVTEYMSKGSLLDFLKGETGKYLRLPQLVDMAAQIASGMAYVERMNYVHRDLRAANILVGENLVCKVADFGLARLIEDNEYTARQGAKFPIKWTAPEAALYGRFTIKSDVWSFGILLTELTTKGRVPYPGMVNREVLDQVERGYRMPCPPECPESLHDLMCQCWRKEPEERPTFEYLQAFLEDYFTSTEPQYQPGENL
Summary of the method: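 Baculovirus-expressed c-src immunopurified on antibody-coated latex beads, assayed in 40 mM Tris pH 7.5, 5 mM MgCl2 with poly GluTyr substrate and 5 μM ATP plus 32P-ATP. Reaction 10 min at room temperature, TCA-quenched, filtered; incorporated label counted by scintillation.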

[3] = target: T3, Human EGF receptor tyrosine kinase (Homo sapiens, UniProt P00533); test: EGF receptor tyrosine kinase assay; conditions: read-out: Inhibition of Protein Tyrosine Kinases, EGF, IC50
T3 construct: isolated from A431 epidermoid carcinoma cells; endogenous in cells; host or cells: A431 epidermoid carcinoma cells (Triton lysate, wheat germ agglutinin eluate)
T3 sequence (P00533 25-1210): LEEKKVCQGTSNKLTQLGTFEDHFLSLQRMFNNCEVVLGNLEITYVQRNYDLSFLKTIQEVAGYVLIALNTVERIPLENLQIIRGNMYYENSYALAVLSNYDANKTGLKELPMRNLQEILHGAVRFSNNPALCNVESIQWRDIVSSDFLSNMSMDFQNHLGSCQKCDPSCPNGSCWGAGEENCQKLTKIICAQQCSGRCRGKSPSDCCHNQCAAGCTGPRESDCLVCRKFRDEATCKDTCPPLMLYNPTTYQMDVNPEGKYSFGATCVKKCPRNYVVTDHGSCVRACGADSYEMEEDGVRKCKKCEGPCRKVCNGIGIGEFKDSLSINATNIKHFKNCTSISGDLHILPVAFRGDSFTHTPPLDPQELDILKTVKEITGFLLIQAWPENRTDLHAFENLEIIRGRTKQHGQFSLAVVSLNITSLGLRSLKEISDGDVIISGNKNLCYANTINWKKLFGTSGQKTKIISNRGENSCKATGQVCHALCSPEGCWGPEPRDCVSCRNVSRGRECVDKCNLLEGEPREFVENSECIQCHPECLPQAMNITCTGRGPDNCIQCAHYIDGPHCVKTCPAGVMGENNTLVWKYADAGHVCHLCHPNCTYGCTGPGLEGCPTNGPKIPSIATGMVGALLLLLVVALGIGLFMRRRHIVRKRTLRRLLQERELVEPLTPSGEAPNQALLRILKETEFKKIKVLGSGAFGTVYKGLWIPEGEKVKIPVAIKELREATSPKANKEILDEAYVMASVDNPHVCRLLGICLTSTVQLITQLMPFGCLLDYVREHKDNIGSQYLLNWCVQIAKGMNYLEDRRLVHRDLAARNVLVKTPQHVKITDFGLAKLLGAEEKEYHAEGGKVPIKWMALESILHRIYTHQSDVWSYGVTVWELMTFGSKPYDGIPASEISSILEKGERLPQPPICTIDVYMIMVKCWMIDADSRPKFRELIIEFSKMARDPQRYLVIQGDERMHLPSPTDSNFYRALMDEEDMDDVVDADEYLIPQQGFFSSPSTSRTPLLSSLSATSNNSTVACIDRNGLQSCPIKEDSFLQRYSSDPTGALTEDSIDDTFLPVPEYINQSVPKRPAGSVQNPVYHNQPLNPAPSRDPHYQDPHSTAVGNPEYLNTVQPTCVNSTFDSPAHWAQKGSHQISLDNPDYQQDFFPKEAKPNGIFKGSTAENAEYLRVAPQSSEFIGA
Method: Purification of Epidermal Growth Factor Receptor Tyrosine Kinase
Human EGF receptor tyrosine kinase was isolated from A431 epidermoid carcinoma cells by the following methods. Cells were grown in roller bottles in 50% Delbuco's Modified Eagle and 50% HAM F-12 nutrient media (Gibco) containing 10% fetal calf serum. Approximately 10^9 cells were lysed in two volumes of buffer containing 20 mM 2-(4N-[2-hydroxyethyl]piperazin-1-yl)ethanesulfonic acid, pH 7.4, 5 mM ethylene glycol bis(2-aminoethyl ether)N,N,N',N'-tetraacetic acid, 1% Triton X-100, 10% glycerol, 0.1 mM sodium orthovanadate, 5 mM sodium fluoride, 4 mM pyrophosphate, 4 mM benzamide, 1 mM dithiothreitol, 80 μg/mL aprotinin, 40 μg/mL leupeptin, and 1 mM phenylmethylsulfonyl fluoride. After centrifugation at 25,000×g for 10 minutes, the supernatant was equilibrated for 2 hours at 4° C. with 10 mL of wheat germ agglutinin sepharose that was previously equilibrated with 50 mM Hepes, 10% glycerol, 0.1% Triton X-100 and 150 mM NaCl, pH 7.5, (equilibration buffer). Contaminating proteins were washed from the resin with 1M NaCl in equilibration buffer, and the enzyme was eluted with 0.5M N-acetyl-1-D-glucosamine in equilibration buffer.
Determination of IC50 Values
The reaction was terminated by the addition of 2 mL of 75 mM phosphoric acid and passed through a 2.5-cm phosphocellulose filter disc to bind the peptide. The filter was washed five times with 75 mM phosphoric acid and placed in a vial along with 5 mL of scintillation fluid (Ready gel Beckman).

[4] = target: T4, mouse PDGF-β receptor tyrosine kinase (Mus musculus, UniProt P05622); test: PDGF receptor tyrosine kinase assay; conditions: read-out: Inhibition of Protein Tyrosine Kinases, PDGF, IC50
T4 construct: a fragment of DNA that codes for the intracellular tyrosine kinase domain; made in house; host or cells: Sf9 insect cells (baculovirus), cell lysate
T4 sequence (P05622 599-961 limits assumed): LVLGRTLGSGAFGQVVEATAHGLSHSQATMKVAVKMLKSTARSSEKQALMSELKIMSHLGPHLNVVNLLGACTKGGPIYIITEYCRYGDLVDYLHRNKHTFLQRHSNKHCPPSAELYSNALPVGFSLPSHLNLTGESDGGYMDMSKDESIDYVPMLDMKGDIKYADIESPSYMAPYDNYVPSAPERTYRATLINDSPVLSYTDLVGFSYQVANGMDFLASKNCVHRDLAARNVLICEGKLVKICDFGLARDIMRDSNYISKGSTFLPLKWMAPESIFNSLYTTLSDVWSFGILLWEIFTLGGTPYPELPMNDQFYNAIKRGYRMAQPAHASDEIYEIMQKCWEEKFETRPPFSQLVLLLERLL
Summary of the method: as §1

T1 sequence (P11362 478-767 limits assumed): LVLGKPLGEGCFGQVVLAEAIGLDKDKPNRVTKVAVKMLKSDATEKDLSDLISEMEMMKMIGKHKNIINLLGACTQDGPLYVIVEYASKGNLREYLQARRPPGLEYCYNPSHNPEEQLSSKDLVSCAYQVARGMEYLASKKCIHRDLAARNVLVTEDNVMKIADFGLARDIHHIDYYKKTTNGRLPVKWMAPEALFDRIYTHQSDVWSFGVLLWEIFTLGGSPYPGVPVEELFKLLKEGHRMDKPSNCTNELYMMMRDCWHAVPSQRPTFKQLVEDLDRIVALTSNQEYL

Cc1ccccc1-c1cc2cnc(N)nc2nc1N [Example 90, 6-o-Tolyl-pyrido[2,3-d]pyrimidine-2,7-diamine]
IC50 [1]: 11.5 µM | IC50 [2]: 1.63 µM | IC50 [3]: 22.8 µM | IC50 [4]: 8.01 µM
